The text below walks through data of patent publication US20220187275A1, “SYSTEMS AND METHODS FOR DIRECTED FORMATION OF SIZE-CONTROLLED MULTI-CELLULAR STRUCTURES AND MEASUREMENT OF FORCES GENERATED BY THE SAME” (Forcyte Biotechnologies, Inc., priority 2019, published 2022).

The test system of this assay is primary human airway smooth muscle cells. The settings on record: 384-well plate, 24 hours serum starvation, histamine final concentration 100 micromolar, imaged at 1 minute intervals.

Description: To achieve the result depicted in FIG. 9, approximately 2000-2500 primary human airway smooth muscle cells were seeded into each of several wells on a microplate comprising 384 wells each with at least 60 MCS-supporting micropatterns deposed on their surface, in Ham's F12 medium supplemented with 10% serum and incubated for 5 days. The MCS-supporting micropatterns comprised a fluorophore-conjugated material comprising human fibrinogen conjugated to Alexa Fluor® 546 dye.
On day 5, MCS comprising the primary airway smooth muscle cells were observed within the wells. At this point, the serum-supplemented medium was replaced with serum-free medium to induce the contractile phenotype in the MCS. […] This step was taken to maximize contractile responsiveness to agonist in the next step.
After 24 hours of serum starvation, the microplate containing the MCS was imaged using a fluorescent microscope prior to any chemical addition in the fluorescent channel that corresponds to the fluorophore used in the MCS-supporting micropattern.

For the molecule `NCCc1c[nH]cn1` [histamine], the “contraction of the MCS (size of MCS-supporting micropatterns relative to baseline contracted state) after addition of agonist” value was “contraction”.
